The record followed here is ChEMBL document CHEMBL5614458, “Benign-by-Design SAHA Analogues for Human and Animal Vector-Borne Parasitic Diseases” (ACS Med Chem Lett, 2024).

Calls of active or inactive are those of the source. The rule behind the calls is not given here.

In data set [1] the test system is HepG2. Briefly: Cytotoxicity against human HepG2 cells assessed as cell viability at 10 uM incubated for 24 hrs by MTT assay. The format is toxicity, cell-based. The note with it: hepg2, 24 h. Background: Formazan colour is commonly taken as a measure of viable cells.
The next data set concerns Leishmania mexicana. Briefly: Antiparasitic activity against Leishmania mexicana Cas9 promastigotes incubated for 48 hrs by Resazurin assay. The data set is classed as functional, organism-based. The note with it: Cas9, 48 h. In general terms: Alamar Blue is a resazurin reagent that responds to reducing activity.
The target of data set [2] is T1, Histone deacetylase (Homo sapiens) (UniProt Q13547+O15379+Q9UBN7+Q92769+Q9UQL6+Q8WUI4+Q9BY41+Q96DB2+P56524+Q9UKV0+Q969S8). Briefly: Inhibition of HDAC in human MET5A cells transfected with Rluc-Brd/YFP-fused histone H3 at 0.1 to 10 uM by BRET assay. The note with it: dose 0.1-10 µM. The format is cell-based. (In general: In BRET a luciferase serves as donor, and the signal depends on an acceptor being close.)

The next data set relates to IMR-32. Kind of data set: Cytotoxicity against human IMR-32 cells assessed as cell viability at 10 uM incubated for 24 hrs by MTT assay. The format is toxicity, cell-based. The note with it: imr-32, 24 h.
The test system of a further data set is Leishmania amazonensis. Kind of data set: Antiparasitic activity against Leishmania amazonensis MHOM/BR/77/LTB0016 amastigotes infected in BALB/c mouse incubated for 48 hrs by Alamar Blue assay. The format is functional, organism-based. The note with it: MHOM/BR/77/LTB0016, 48 h.
The subject of a further data set is Trypanosoma brucei. Kind of data set: microbe, parasite or virus in culture. The note with it: Lister 427WT, 48 h. The format is functional, organism-based.
The subject of another data set is Trypanosoma cruzi. Kind of data set: Antiparasitic activity against Trypanosoma cruzi Tulahuen intracellular forms infected in mouse L929 cells incubated for 96 hrs by spectrophotometery. The format is functional, organism-based. The note with it: L929, 96 h.
The nature of data set [3]: Cytotoxicity against mouse L929 cells incubated for 96 hrs by Alamar Blue assay. The data set is classed as toxicity, cell-based. The note with it: read-out: LC50.
Data set [4] relates to HepG2. Kind of data set: Cytotoxicity against human HepG2 cells assessed as reduction in cell viability at 10 uM incubated for 24 hrs by MTT assay relative to control. The format is toxicity, cell-based. The note with it: hepg2, 24 h.
In data set [5] the target is T1, Histone deacetylase (Homo sapiens). Kind of data set: Inhibition of HDAC in human MET5A cells transfected with Rluc-Brd/YFP-fused histone H3 by BRET assay. The format is cell-based. The note with it: dose 0.1-10 µM.
Data set [6] concerns the target T2, Protein deacetylase HDAC6 (Homo sapiens, UniProt Q9UBN7).
T2 sequence (Q9UBN7 whole entry): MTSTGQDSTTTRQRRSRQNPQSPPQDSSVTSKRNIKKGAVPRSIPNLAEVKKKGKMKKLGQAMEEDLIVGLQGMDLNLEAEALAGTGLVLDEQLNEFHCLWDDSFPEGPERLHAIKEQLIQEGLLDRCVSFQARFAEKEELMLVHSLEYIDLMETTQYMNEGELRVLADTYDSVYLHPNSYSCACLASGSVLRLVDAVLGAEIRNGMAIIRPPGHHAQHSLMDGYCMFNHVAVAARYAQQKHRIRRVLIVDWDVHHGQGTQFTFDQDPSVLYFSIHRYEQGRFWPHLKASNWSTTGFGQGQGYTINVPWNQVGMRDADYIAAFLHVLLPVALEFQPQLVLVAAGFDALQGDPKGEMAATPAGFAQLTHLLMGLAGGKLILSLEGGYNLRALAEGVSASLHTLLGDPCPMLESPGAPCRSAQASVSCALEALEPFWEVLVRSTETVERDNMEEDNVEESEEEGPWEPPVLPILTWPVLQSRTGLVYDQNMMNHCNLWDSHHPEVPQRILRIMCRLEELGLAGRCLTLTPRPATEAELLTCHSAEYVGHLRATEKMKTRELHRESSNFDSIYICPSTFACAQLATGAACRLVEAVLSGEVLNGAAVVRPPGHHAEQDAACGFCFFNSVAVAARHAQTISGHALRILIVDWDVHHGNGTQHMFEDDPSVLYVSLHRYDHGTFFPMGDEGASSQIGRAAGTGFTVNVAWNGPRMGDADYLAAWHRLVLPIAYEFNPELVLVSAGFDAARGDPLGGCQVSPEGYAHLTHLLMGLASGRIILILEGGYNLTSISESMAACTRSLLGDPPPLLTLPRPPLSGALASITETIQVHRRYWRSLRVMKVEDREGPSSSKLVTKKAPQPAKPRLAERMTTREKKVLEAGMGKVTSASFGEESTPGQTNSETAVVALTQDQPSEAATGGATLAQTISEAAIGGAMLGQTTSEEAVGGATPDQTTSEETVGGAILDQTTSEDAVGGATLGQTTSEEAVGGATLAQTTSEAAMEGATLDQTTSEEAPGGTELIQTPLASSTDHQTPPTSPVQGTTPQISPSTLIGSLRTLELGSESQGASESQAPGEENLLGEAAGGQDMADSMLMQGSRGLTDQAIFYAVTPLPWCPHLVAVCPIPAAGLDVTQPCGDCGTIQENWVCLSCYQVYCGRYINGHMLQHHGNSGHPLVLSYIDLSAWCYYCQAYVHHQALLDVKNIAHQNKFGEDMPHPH
Briefly: Inhibition of HDAC6 (unknown origin) using RHKK(Ac)AMC as substrate.

Description for Trypanosoma brucei: Antiparasitic activity against Trypanosoma brucei Lister 427WT bloodstream trypomastigotes incubated for 48 hrs by Resazurin assay

As for `Nc1ccccc1NC(=O)CCCCCCCCCCCc1cccc(OCc2ccccc2)c1`, the Activity result in the data set with HepG2 [1] and with IMR-32 was “Non-Toxic” each time. The concentration giving a half-maximal response (EC50) in the data set with Leishmania mexicana was > 100 µM; in the data set on Leishmania amazonensis, > 30 µM; in the data set with Trypanosoma brucei it was 78.3 µM; in the data set with Trypanosoma cruzi, > 10 µM. In [2], the inhibition entry is “inactive”. In addition, in [3], the CC50 at 96 h is > 200 µM.
Consider `COc1cccc(CCCCCCCCCCCC(=O)NO)c1`, for which the EC50 with Leishmania mexicana is 104 µM; with Leishmania amazonensis, > 30 µM; with Trypanosoma brucei, 0.7 µM; in the data set with Trypanosoma cruzi, > 10 µM. Moreover, the inhibition entry in data set [2] was “inactive”. In addition, the results for the Activity in the data set on HepG2 [4] and with IMR-32 were 25% and “Non-Toxic”, respectively. In addition, the CC50 at 96 h in [3] amounted to 157 µM.
For the compound `C[C@@H]1[C@H](O)[C@@H](C)/C=C/C=C/C=C/C=C/C=C/C=C/C=C/[C@H](O[C@@H]2O[C@H](C)[C@@H](O)[C@H](N)[C@@H]2O)C[C@@H]2O[C@](O)(C[C@@H](O)C[C@@H](O)[C@H](O)CC[C@@H](O)C[C@@H](O)CC(=O)O[C@H]1C)C[C@H](O)[C@H]2C(=O)O` [AMPHOTERICIN B], in the data set with Leishmania mexicana, a half-maximal response (EC50) required 0.15 µM. This lies in the sub-micromolar range.
`N=C(N)c1ccc(OCCCCCOc2ccc(C(=N)N)cc2)cc1` [PENTAMIDINE]: the EC50 with Leishmania mexicana came out at 1.3 µM; in the data set with Trypanosoma brucei, 0.021 µM.
In turn, `O=C(Cn1ccnc1[N+](=O)[O-])NCc1ccccc1` [BENZNIDAZOLE] came in with an EC50 with Trypanosoma cruzi of 2.63 µM. The CC50 at 96 h in data set [3] was > 200 µM.
On to `Nc1ccccc1NC(=O)CCCCCCCCCCCc1cccc(O)c1`, for which the Activity entry in the data set with HepG2 [1] and with IMR-32 was “Non-Toxic” throughout. Also, the EC50 in the data set with Leishmania mexicana was 58 µM; with Leishmania amazonensis it was > 30 µM; in the data set on Trypanosoma brucei, 7.2 µM; in the data set on Trypanosoma cruzi, > 10 µM. The inhibition entry in data set [2] was “inactive”. Besides, the CC50 at 96 h in [3] worked out at 145 µM.
On to `O=C(CCCCCCCCCCCc1cccc(OCc2ccccc2)c1)NO`, for which the Activity result in the data set on HepG2 [1] and in the data set with IMR-32 was “Non-Toxic” throughout. For the same compound, the EC50 with Leishmania mexicana is 69 µM; in the data set on Leishmania amazonensis, 14.5 µM; in the data set with Trypanosoma brucei, 4.8 µM; with Trypanosoma cruzi it was > 10 µM. For the same compound, in data set [5], the inhibition result was “Dose-Dependent Effect”. Besides, in data set [3], the CC50 at 96 h came out at 90 µM.
`CCCCCCCCCCCCCCCCOP(=O)([O-])OCC[N+](C)(C)C` [MILTEFOSINE] displayed a concentration giving a half-maximal response (EC50) with Leishmania amazonensis of 1.38 µM.
Regarding `Nc1ccccc1NC(=O)CCCCCCCCCCCc1cccc(OC(=O)c2ccccc2)c1`, the Activity entry in the data set with HepG2 [1] and in the data set with IMR-32 was “Non-Toxic” each time. In addition, the concentration giving a half-maximal response (EC50) in the data set with Leishmania mexicana is > 100 µM; in the data set on Leishmania amazonensis, > 30 µM; in the data set with Trypanosoma brucei it was 8.5 µM; in the data set with Trypanosoma cruzi, > 10 µM. In data set [2], the inhibition result was “inactive”. The CC50 at 96 h in data set [3] is > 200 µM.
In the case of `COc1cccc(CCCCCCCCCCCC(=O)Nc2ccccc2N)c1`, the Activity entry with HepG2 [1] and in the data set with IMR-32 was “Non-Toxic” throughout. The EC50 was > 100 µM with Leishmania mexicana, 14.4 µM in the data set on Trypanosoma brucei and > 10 µM with Trypanosoma cruzi. For the same compound, the inhibition entry in data set [2] was “inactive”. Moreover, in data set [3], the CC50 at 96 h was > 200 µM.
For `O=C(CCCCCCCCCCCc1cccc(OC(=O)c2ccccc2)c1)NO`, the Activity result in the data set on HepG2 [1] and in the data set on IMR-32 was “Non-Toxic” each time. The concentration giving a half-maximal response (EC50) was 54 µM in the data set on Leishmania mexicana, > 30 µM in the data set with Leishmania amazonensis, 4.8 µM in the data set with Trypanosoma brucei and > 10 µM with Trypanosoma cruzi. In data set [2], the inhibition entry was “inactive”. Also, in data set [3], the CC50 at 96 h amounted to 79 µM.
In the case of `O=C(CCCCCCCCCCCc1cccc(O)c1)NO`, the Activity entry in the data set on HepG2 [1] and in the data set on IMR-32 was “Non-Toxic” in each case. Moreover, the EC50 was ~100 µM with Leishmania mexicana, > 30 µM with Leishmania amazonensis, 5.1 µM in the data set on Trypanosoma brucei and > 10 µM in the data set on Trypanosoma cruzi. Further, the inhibition entry in data set [5] was “Dose-Dependent Effect”. Besides, half-maximal inhibition in data set [6] (IC50) required 1.01 µM. The CC50 at 96 h in data set [3] amounted to 151 µM.

By EC50 is commonly meant the concentration at which the effect is half-maximal. A higher EC50 goes with a less potent agent. Usually IC50 stands for the concentration that inhibits the measured activity by half. Low readings indicate inhibition by little substance, high ones a need for much substance.
